In patent publication US10765114B2, “4-amino-6-(pyridyl and 2-substitutedphenyl)-picolinates and 6-amino-2-(pyridyl and 2-substitutedphenyl)-pyrimidine-4-carboxylates and their use as herbicides” (Dow AgroSciences LLC, priority 2013, dated 2020):
Like-named read-outs stand apart in the source and are kept apart here.

What was measured:
[1] = test system: Key Grass and Sedge Weeds as well as Grass Crops; assay: Post-Emergent Test II (Table 6); assay type: in vivo; conditions: for Visual Growth Reduction (%) 14 Days After Application, CYPSS: CYPSS (CYPES: yellow nutsedge, Cyperus esculentus); for Visual Growth Reduction (%) 14 Days After Application, DIGSA: DIGSA: crabgrass (Digitaria sanguinalis); for Visual Growth Reduction (%) 14 Days After Application, ECHSS: ECHSS (ECHCG: barnyardgrass, Echinochloa crus-galli); for Visual Growth Reduction (%) 14 Days After Application, ORYSS: ORYSS (ORYSA: rice, Oryza sativa); for Visual Growth Reduction (%) 14 Days After Application, ORYSS / Visual Growth Reduction (%) 14 Days After Application, TRZSS / Visual Growth Reduction (%) 14 Days After Application, ZEAMX: crop; for Visual Growth Reduction (%) 14 Days After Application, SETFA: SETFA: giant foxtail (Setaria faberi); for Visual Growth Reduction (%) 14 Days After Application, SORVU: SORVU: johnsongrass (Sorghum vulgare); for Visual Growth Reduction (%) 14 Days After Application, TRZSS: TRZSS (TRZAS: wheat, spring, Triticum aestivum); for Visual Growth Reduction (%) 14 Days After Application, ZEAMX: ZEAMX: maize, corn (Zea mays)
Experimental: (§1) Seeds or nutlets of the desired test plant species were planted in Sun Gro Metro-Mix® 360 planting mixture, which typically has a pH of 6.0 to 6.8 and an organic matter content of about 30 percent, in plastic pots with a surface area of 64 square centimeters. When required to ensure good germination and healthy plants, a fungicide treatment and/or other chemical or physical treatment was applied. The plants were grown for 7-21 days in a greenhouse with an approximate 15 h photoperiod which was maintained at about 23-29° C. during the day and 22-28° C. during the night. Nutrients and water were added on a regular basis and supplemental lighting was provided with overhead metal halide 1000-Watt lamps as necessary. The plants were employed for testing when they reached the first or second true leaf stage.
(§2) A weighed amount, determined by the highest rate to be tested, of each test compound was placed in a 25 mL glass vial and was dissolved in 4 mL of a 97:3 v/v mixture of acetone and DMSO to obtain concentrated stock solutions. […] The concentrated stock solutions obtained were diluted with 20 mL of an aqueous mixture containing acetone, water, isopropyl alcohol, DMSO, Atplus 411F crop oil concentrate, and Triton® X-155 surfactant in a 48.5:39:10:1.5:1.0:0.02 v/v ratio to obtain spray solutions containing the highest application rates. Additional application rates were obtained by serial dilution of 12 mL of the high rate solution into a solution containing 2 mL of 97:3 v/v mixture of acetone and DMSO and 10 mL of an aqueous mixture containing acetone, water, isopropyl alcohol, DMSO, Atplus 411F crop oil concentrate, and Triton X-155 surfactant in a 48.5:39:10:1.5:1.0:0.02 v/v ratio to obtain ½×, ¼×, ⅛× and 1/16× rates of the high rate. Compound requirements are based upon a 12 mL application volume at a rate of 187 liters per hectare (L/ha). Formulated compounds were applied to the plant material with an overhead Mandel track sprayer equipped with 8002E nozzles calibrated to deliver 187 L/ha over an application area of 0.503 square meters at a spray height of 18 inches (43 cm) above the average plant canopy height. Control plants were sprayed in the same manner with the solvent blank.
(§3) The treated plants and control plants were placed in a greenhouse as described above and watered by subirrigation to prevent wash-off of the test compounds. After 14 days, the condition of the test plants as compared with that of the untreated plants was determined visually and scored on a scale of 0 to 100 percent where 0 corresponds to no injury and 100 corresponds to complete kill and presented as indicated in Table A. Some of the compounds tested, application rates employed, plant species tested, and results are given in Table 5.

[2] = test system: Key Broadleaf Weed and Crop Species; assay: Post-Emergent Test II (Table 5); assay type: in vivo; conditions: post-emergence, 336 h; for pest or weed control at 70 g/ha: application rate 70 (kg ai/ha; footnote: g ai/ha); for pest or weed control at 140 g/ha: application rate 140 (kg ai/ha; footnote: g ai/ha)
Experimental: as §1, §2, §3

[3] = Abutilon theophrasti, ABUTH: velvetleaf (Abutilon theophrasti), read-out: Visual Growth Reduction (%) 14 Days After Application ABUTH
[4] = Amaranthus retroflexus, AMARE: redroot pigweed (Amaranthus retroflexus), read-out: Visual Growth Reduction (%) 14 Days After Application AMARE
[5] = Brassica napus, BRSSS: oilseed rape, canola (Brassica napus), read-out: Visual Growth Reduction (%) 14 Days After Application BRSSS
[6] = Chenopodium album, CHEAL: lambsquarters (Chenopodium album), read-out: Visual Growth Reduction (%) 14 Days After Application CHEAL
[7] = Euphorbia heterophylla, EPHHL: wild poinsettia (Euphorbia heterophylla), read-out: Visual Growth Reduction (%) 14 Days After Application EPHHL
[8] = Helianthus annuus, HELAN: sunflower (Helianthus annuus), read-out: Visual Growth Reduction (%) 14 Days After Application HELAN
[9] = Viola tricolor, VIOTR: wild pansy (Viola tricolor), read-out: Visual Growth Reduction (%) 14 Days After Application VIOTR

SMILES	Visual Growth Reduction (%) 14 Days After Application, CYPSS ([1]; 70 g ai/ha)	Visual Growth Reduction (%) 14 Days After Application, CYPSS ([1]; 140 g ai/ha)	Visual Growth Reduction (%) 14 Days After Application, DIGSA ([1]; 70 g ai/ha)	Visual Growth Reduction (%) 14 Days After Application, DIGSA ([1]; 140 g ai/ha)	Visual Growth Reduction (%) 14 Days After Application, ECHSS ([1]; 70 g ai/ha)	Visual Growth Reduction (%) 14 Days After Application, ECHSS ([1]; 140 g ai/ha)	Visual Growth Reduction (%) 14 Days After Application, ORYSS ([1]; 70 g ai/ha)	Visual Growth Reduction (%) 14 Days After Application, ORYSS ([1]; 140 g ai/ha)	Visual Growth Reduction (%) 14 Days After Application, SETFA ([1]; 70 g ai/ha)	Visual Growth Reduction (%) 14 Days After Application, SETFA ([1]; 140 g ai/ha)	Visual Growth Reduction (%) 14 Days After Application, SORVU ([1]; 70 g ai/ha)	Visual Growth Reduction (%) 14 Days After Application, SORVU ([1]; 140 g ai/ha)	Visual Growth Reduction (%) 14 Days After Application, TRZSS ([1]; 70 g ai/ha)	Visual Growth Reduction (%) 14 Days After Application, TRZSS ([1]; 140 g ai/ha)	Visual Growth Reduction (%) 14 Days After Application, ZEAMX ([1]; 70 g ai/ha)	Visual Growth Reduction (%) 14 Days After Application, ZEAMX ([1]; 140 g ai/ha)	pest or weed control at 70 g/ha [2, 3] [%]	pest or weed control at 140 g/ha [2, 3] [%]	pest or weed control at 70 g/ha [2, 4] [%]	pest or weed control at 140 g/ha [2, 4] [%]	also measured
COC(=O)c1nc(-c2ccc(Cl)c(F)c2Cl)nc(N)c1OC [Compound 42, Methyl 6-amino-2-(2,4-dichloro-3-fluorophenyl)-5-methoxypyrimidine-4-carboxylate]	A (95-100)	A (95-100)	G (0-29)	G (0-29)	G (0-29)	G (0-29)	G (0-29)	G (0-29)	G (0-29)	G (0-29)	G (0-29)	F (30-44)	F (30-44)	E (45-59)	G (0-29)	G (0-29)	95 to 100	95 to 100	95 to 100	95 to 100	pest or weed control at 70 g/ha [2, 5]: 95 to 100%; pest or weed control at 140 g/ha [2, 5]: 95 to 100%; pest or weed control at 70 g/ha [2, 6]: 95 to 100%; pest or weed control at 140 g/ha [2, 6]: 95 to 100%; pest or weed control at 70 g/ha [2, 7]: 30 to 44%; pest or weed control at 140 g/ha [2, 7]: 60 to 74%; pest or weed control at 70 g/ha [2, 8]: 85 to 94%; pest or weed control at 140 g/ha [2, 8]: 85 to 94%; pest or weed control at 70 g/ha [2, 9]: 60 to 74%; pest or weed control at 140 g/ha [2, 9]: 60 to 74%
Nc1c(F)c(-c2ccc(Cl)c(F)c2Cl)nc(C(=O)O)c1Cl [Compound 16, 4-Amino-3-chloro-6-(2,4-dichloro-3-fluorophenyl)-5-fluoropicolinic acid]	A (95-100)	B (85-94)	C (75-84)	B (85-94)	B (85-94)	A (95-100)	F (30-44)	E (45-59)	A (95-100)	A (95-100)	C (75-84)	B (85-94)	B (85-94)	B (85-94)	B (85-94)	B (85-94)	85 to 94	95 to 100	95 to 100	95 to 100	pest or weed control at 70 g/ha [2, 5]: 95 to 100%; pest or weed control at 140 g/ha [2, 5]: 95 to 100%; pest or weed control at 70 g/ha [2, 6]: 95 to 100%; pest or weed control at 140 g/ha [2, 6]: 95 to 100%; pest or weed control at 70 g/ha [2, 7]: 85 to 94%; pest or weed control at 140 g/ha [2, 7]: 95 to 100%; pest or weed control at 70 g/ha [2, 8]: 95 to 100%; pest or weed control at 140 g/ha [2, 8]: 95 to 100%; pest or weed control at 70 g/ha [2, 9]: 95 to 100%; pest or weed control at 140 g/ha [2, 9]: 95 to 100%
Nc1cc(-c2ccc(Cl)c(F)c2C(F)F)nc(C(=O)O)c1Cl [Compound 13, 4-Amino-3-chloro-6-(4-chloro-2-(difluoromethyl)-3-fluorophenyl)picolinic acid]	G (0-29)	G (0-29)	G (0-29)	G (0-29)	G (0-29)	G (0-29)	G (0-29)	G (0-29)	G (0-29)	G (0-29)	G (0-29)	G (0-29)	G (0-29)	G (0-29)	G (0-29)	G (0-29)	75 to 84	0 to 29	95 to 100	95 to 100	pest or weed control at 70 g/ha [2, 5]: 85 to 94%; pest or weed control at 140 g/ha [2, 5]: 85 to 94%; pest or weed control at 70 g/ha [2, 6]: 95 to 100%; pest or weed control at 140 g/ha [2, 6]: 95 to 100%; pest or weed control at 70 g/ha [2, 7]: 0 to 29%; pest or weed control at 140 g/ha [2, 7]: 0 to 29%; pest or weed control at 70 g/ha [2, 8]: 85 to 94%; pest or weed control at 140 g/ha [2, 8]: 85 to 94%; pest or weed control at 70 g/ha [2, 9]: 0 to 29%; pest or weed control at 140 g/ha [2, 9]: 0 to 29%
